From patent US20030212014A1 (priority 2000, published 2003)
Read-outs that look alike come from different tables or passages of the source.

Experiments:
HUVEC [1] = assay: Fatty acid metabolism and malonyl CoA in HUVEC after 24 hr in 30 mM glucose; format: cell-based, human; settings: 30 mM glucose + 1 mM AICAR
Description: Fatty acid oxidation was measured over 2 hours after 24 hr prelabeling with ^3H-palmitate. Data are means ±SD (n=4−6). *P<0.05; vs 5 mM glucose. † p<0.05; vs 30 mM glucose;
(§1) We have previously shown that incubation of HUVEC for 2 hr in media containing 30 mM vs 5 mM glucose causes no changes in AMPK activity, malonyl CoA concentration, fatty acid oxidation, or lactate release. […] In addition, it impaired Akt phosphorylation in the presence of insulin (FIG. 11). […] AMPK activity tended to be higher after 24 h of incubation with 30 mM glucose; however, whether it was inappropriately low, in light of the decrease in ATP content (and presumably an increased AMP/ATP ratio), was not ascertained.

HUVEC [2] = assay: Serine incorporation into ceramide in HUVEC; format: cell-based, human; settings: 30 mM glucose + AICAR, 24 hr
Description: To assess whether alterations in ceramide contributed to these events, and particularly the decrease in membrane potential, we attempted to measure ceramide content. Ceramide was not detectable in HUVEC incubated with either 5 or 30 mM glucose. […] Consistent with these findings, we found no increase in serine incorporation into ceramide, (presumably a measure of de novo synthesis) in cells incubated for 24 hr in 30 vs 5 mM glucose.

[3] = system: acetyl CoA carboxylase (ACC); assay: Acetyl CoA carboxylase activity in HUVEC incubated with AICAR; format: cell-based, human; settings: 2 mM AICAR
Description: (§2) As previously mentioned, AMPK increases fatty acid oxidation in both liver and skeletal muscle by phosphorylation and inhibition of acetyl CoA carboxylase. We wanted to test if this effect of AMPK is also present in endothelial cells. […] A significant decrease was seen within the first 30 minutes of incubation (FIG. 3). ACC activity went down from 163.1±27.0 pmol/min/mg protein at 0 minutes to 61.1±1.1 at 30 minutes (P=0.004), 73.0 ±12.4 at 60 minutes and 51.2±5.0 at 120 minutes (P=0.015). As previously described, ACC activation increases malonyl CoA levels and this in turn inhibits CPT1, the enzyme responsible for the uptake of long chain fatty acyl CoA into the mitochondria where they are oxidized. […] Fatty acid oxidation was measured by the formation of titrated water (^3H2O) in cells incubated with ^3H-palmitate. A significant increase was seen only after a 2-hour incubation (P=0.002). […] (See Table 1A, FIG. 6.) Glucose and fatty acid oxidation, glucose uptake and lactate and pyruvate release were determined in the absence and presence of […] carnitine.
The results described in other tissues are seen in the endothelial cells. […] The presence of ACC is shown by the substantial increase in enzyme activity when 10 mM citrate is present vs. 0 mM citrate. Citrate allosterically activates ACC, but not other enzymes, such as propionyl CoA carboxylase and pyruvate carboxylase, which could also use HCO3^−as substrate. Thus, the increase in radioactive HCO3^−use in the presence of citrate is a reflection of ACC activity only. Similar to AMPK, the activity of ACC is lower in endothelial cells than in skeletal muscle and liver.

[4] = system: AMP-activated protein kinase (AMPK); assay: AMP-activated protein kinase activity in HUVEC incubated with AICAR; format: cell-based, human
Description: The enzyme was assayed in a reaction mixture containing either no AMP or 0.2 mM 5′-AMP. The difference in the activity is the AMP-activated kinase activity. […] This indicates the presence of AMPK and AMPKK in HUVEC.
One of the major ATP users, the Na^+/K^+pump, was investigated. The activity of this pump was tested by measuring the uptake of radioactive rubidium in the absence and presence of ouabain, an Na^+/K^+pump inhibitor. The difference in uptake, which is referred to as ouabain-sensitive Rb^+uptake, is the Na^+/K^+pump activity. […] When the ouabain sensitive component was calculated, no ,difference was seen between the two incubations, (2.11±0.9 and 3.3±0.9 pmol/min/mg protein), thus leading us to believe that no change in Na^+/K^+pump activity had occurred. […] The AMPK activity remained high with a longer incubation time up to 120 minutes.

Akt = Akt phosphorylation in the presence of insulin in HUVEC; format: cell-based, human; settings: 30 mM glucose + 1 mM AICAR, 24 h
Description: Results are means±SE (n=4) *p<0.05 vs 5 mM glucose. † p<0.05 vs 30 mM glucose;
as §1

high-fat fed (HFF) rats = assay: Acute effects of a single AICAR injection in high-fat fed (HFF) rats; format: in vivo, rat
Description: Plasma parameters: This experiment was performed on HFF rats under conscious conditions following 5-7 hours of fasting. After catheters were connected to blood sampling syringes, the animals were allowed to rest for 40-50 min. Two blood samples were taken 20 min. apart, constituting the basal samples (time 0). […] Blood samples were collected at 30, 60, 90 and 120 min. after the injection. After the last sample was taken, the animals were euthanized. […] Tissue parameters: The glycogen and triglyceride content of two types of skeletal muscle and liver at the end of the experiment were determined (Table 9, FIG. 27).

HUVEC [5] = format: cell-based, human
Description: as §2
To see if this also occurred in endothelial cells, glucose uptake was measured (Table 1).
In addition, lactate and pyruvate production were measured to see if the rate of glycolysis had changed.
This was not attributable to an increase in glucose oxidation. Glucose oxidation was measured by determining labeled CO2 production when the cells are incubated with ^14C-(U) glucose.
As a result their rate of oxidation can be greatly underestimated unless the tissue is prelabeled with fatty acid. […] Thus, when the HUVEC were pre-incubated with radioactive palmitate for 24 hours prior to ^14CO2 collection (to label the intracellular lipid pools), the measured rate of fatty acid oxidation was increased by 5 fold during the second hour of a two-hour incubation with radioactive palmitate added to the medium. […] (See Table 1A.)

[6] = HFF rats, 250 mg/kg s.c., vs HFF-Con

For NC(=O)c1ncn([C@@H]2O[C@H](CO)[C@@H](O)[C@H]2O)c1N [AICAR, 5-aminoimidizole-4-carboxamide riboside], the “concentration of malonyl-CoA” value (HUVEC [1]) was “even lower than that in cells incubated with 5 mM glucose”, the “diminished fatty acid oxidation caused by 30 mM glucose” value (HUVEC [1]) was “completely prevented” and the “increased incorporation of radioactive glucose and palmitate into diacylglycerol caused by 30 mM glucose” value (HUVEC [1]) was “completely prevented”. The “serine incorporation into ceramide” value (HUVEC [2]) was 9.0±1.2, the ACC activity ([3]; at 30 minutes) was 61.1±1.1 pmol/min/mg protein and the ACC activity ([3]; at 60 minutes) was 73.0 ±12.4 pmol/min/mg protein. It also gave an ACC activity ([3]; at 120 minutes) of 51.2±5.0 pmol/min/mg protein, an AMP-activated kinase activity ([4]; 0.2 mM AICAR, 30 minutes, HUVEC) of 15.8±0.4 pmol/min/mg protein and an AMP-activated kinase activity ([4]; 0.5 mM AICAR, 30 minutes, HUVEC) of 22.5±0.3 pmol/min/mg protein. The AMP-activated kinase activity ([4]; 2 mM AICAR, 30 minutes, HUVEC (concentration series)) was 30.9±0.2 pmol/min/mg protein, the AMP-activated kinase activity ([4]; 2 mM AICAR, at 30 minutes (time course)) was 30.8 pmol/min/mg protein and the AMP-activated kinase activity ([4]; 2 mM AICAR, at 60 minutes (time course)) was 31.5 pmol/min/mg protein. The AMP-activated kinase activity ([4]; 2 mM AICAR, at 120 minutes (time course)) was 32.3 pmol/min/mg protein, the “impaired Akt phosphorylation in the presence of insulin caused by 30 mM glucose” value (Akt) was “completely prevented” and the “changes in tissue triglyceride content” value (high-fat fed (HFF) rats; 2 h after the injection) was “not significant”. For the same compound, the “increase in glycogen content in white muscle” value (high-fat fed (HFF) rats; 2 h after the injection) was 16%, the “reduction in liver glycogen” value (high-fat fed (HFF) rats; 2 h after the injection) was 52% and the “duration of decrease in plasma glucose” value (high-fat fed (HFF) rats; HFF rats, 250 mg/kg s.c.) was “at least 60 minutes”. For the same compound, the “plasma FFA” value (high-fat fed (HFF) rats; HFF rats, 250 mg/kg s.c.) was “remained unchanged”, the “time to decrease in plasma glucose” value (high-fat fed (HFF) rats; HFF rats, 250 mg/kg s.c.) was no more than 30 min and the plasma glucose (high-fat fed (HFF) rats; HFF rats, 250 mg/kg s.c., 30-120 min post-injection) was “decrease”. The plasma glycerol (high-fat fed (HFF) rats; [6]) was “increase”, the plasma triglyceride levels (high-fat fed (HFF) rats; [6]) was “decrease” and the plasma insulin (high-fat fed (HFF) rats; HFF rats, 250 mg/kg s.c., vs saline) was “decrease”. The fatty acid oxidation (HUVEC [5]; 50 pM carnitine added, 3H-palmitate, 2-hour incubation) was “increased significantly”, the “glucose oxidation (labeled CO2 production)” value (HUVEC [5]; 14C-(U) glucose, after two hours) was “increased significantly” and the lactate production (HUVEC [5]; AICAR incubation, 2 hours) was “even more obvious decrease”. The pyruvate production (HUVEC [5]; AICAR incubation, 2 hours) was “slight, but significant decrease”, the “ATP generated accounted for by fatty acid oxidation” value (HUVEC [5]; HUVEC incubated 2 hrs in 6 mM glucose with AICAR) was roughly 40% and the fatty acid oxidation (HUVEC [5]; absence of carnitine, 2 hours) was “did not show any changes”. The “levels of ATP measured by bioluminescence” value (HUVEC [5]; after AICAR incubation) was “rose”, the glucose uptake (HUVEC [5]; during the AICAR incubation) was “decreased” and the “calculated rate of ATP generation” value (HUVEC [5]; no prelabeling (Table 1)) was “significantly diminished”. For the same compound, the “ATP generated accounted for by fatty acid oxidation” value (HUVEC [5]; second hour of two-hour incubation, 24 hours prelabeling with palmitate, with AICAR) was 60%.
